Laboratory results published in article PMC7093416, “Selective USP7 inhibition elicits cancer cell killing through a p53-dependent mechanism” (Scientific Reports, 2020).

Test system: panel of 484 cancer cell lines
Experiment: PRISM cancer cell line profiling, 5 days
Type: cell-based
Parameters: AUC: unit not given beside the values
Method: Cancer cell line profiling was performed using the Broad’s PRISM platform. Cell treatment and data analysis were performed as described in Yu et al[42]. Raw Luminex signal was converted to AUC values for each cell line as described. The resulting AUC profile for each compound was modeled against DepMap using the limma package in R[71]. Because hotspot mutation analysis was performed against DepMap, TP53 annotations in Fig. 6c,d are directly from DepMap.

## CN1CCN(CCC(=O)Nc2ccc3c(=O)n(CC4(O)CCN(C(=O)[C@@H](CCCNC(=O)c5ccc6c(Cl)c7c(nc6c5)CCCC7)Cc5ccccc5)CC4)cnc3c2)CC1 [XL177A]
MG63_BONE
  AUC: 1.147
MHHES1_BONE
  AUC: 0.9854
MIAPACA2_PANCREAS
  AUC: 0.7815
MKN1_STOMACH
  AUC: 1.271
MKN7_STOMACH
  AUC: 0.8494
MKN45_STOMACH
  AUC: 0.5723
MKN74_STOMACH
  AUC: 0.9306
MON_SOFT_TISSUE
  AUC: 0.2802
MPP89_PLEURA
  AUC: 1.207
MSTO211H_PLEURA
  AUC: 0.9069
NB1_AUTONOMIC_GANGLIA
  AUC: 0.8293
NCIH23_LUNG
  AUC: 0.7147
NCIH28_PLEURA
  AUC: 1.117
NCIH226_LUNG
  AUC: 0.8849
NCIH292_LUNG
  AUC: 1.012
NCIH322_LUNG
  AUC: 0.9977
NCIH358_LUNG
  AUC: 0.842
NCIH446_LUNG
  AUC: 1.125
NCIH460_LUNG
  AUC: 1.082
NCIH520_LUNG
  AUC: 1.357
NCIH522_LUNG
  AUC: 0.9146
NCIH596_LUNG
  AUC: 0.8559
NCIH650_LUNG
  AUC: 0.8175
NCIH661_LUNG
  AUC: 1.081
NCIH727_LUNG
  AUC: 1.196
NCIH747_LARGE_INTESTINE
  AUC: 0.9621
NCIH838_LUNG
  AUC: 0.9473
NCIH841_LUNG
  AUC: 0.967
NCIH1048_LUNG
  AUC: 1.077
NCIH1299_LUNG
  AUC: 1.101
NCIH1339_LUNG
  AUC: 0.9923
NCIH1355_LUNG
  AUC: 0.948
NCIH1373_LUNG
  AUC: 0.8577
NCIH1435_LUNG
  AUC: 1.156
NCIH1437_LUNG
  AUC: 0.9262
NCIH1563_LUNG
  AUC: 0.7202
NCIH1568_LUNG
  AUC: 0.8953
NCIH1573_LUNG
  AUC: 1.235
NCIH1581_LUNG
  AUC: 0.9829
NCIH1623_LUNG
  AUC: 0.9673
NCIH1648_LUNG
  AUC: 0.9409
NCIH1650_LUNG
  AUC: 0.8271
NCIH1651_LUNG
  AUC: 1.042
NCIH1693_LUNG
  AUC: 0.9884
NCIH1703_LUNG
  AUC: 1.041
NCIH1792_LUNG
  AUC: 1.0161
NCIH1793_LUNG
  AUC: 1.096
NCIH1838_LUNG
  AUC: 0.9778
NCIH1915_LUNG
  AUC: 0.9037
NCIH1944_LUNG
  AUC: 0.9736
NCIH1975_LUNG
  AUC: 0.923
NCIH2009_LUNG
  AUC: 0.7912
NCIH2023_LUNG
  AUC: 1.0442
NCIH2030_LUNG
  AUC: 1.09
NCIH2052_PLEURA
  AUC: 0.7196
NCIH2077_LUNG
  AUC: 1.06
NCIH2087_LUNG
  AUC: 0.9147
NCIH2110_LUNG
  AUC: 1.049
NCIH2122_LUNG
  AUC: 0.751
NCIH2126_LUNG
  AUC: 0.9474
NCIH2170_LUNG
  AUC: 1.032
NCIH2172_LUNG
  AUC: 1.068
NCIH2228_LUNG
  AUC: 0.9446
NCIH2347_LUNG
  AUC: 0.9414
NCIH2444_LUNG
  AUC: 0.981
NCIH2452_PLEURA
  AUC: 1.231
NCIN87_STOMACH
  AUC: 1.289
NUGC3_STOMACH
  AUC: 0.9146
NUGC4_STOMACH
  AUC: 0.8113
OAW42_OVARY
  AUC: 0.9061
OC314_OVARY
  AUC: 1.051
OC316_OVARY
  AUC: 1.076
OE19_OESOPHAGUS
  AUC: 1.108
OE21_OESOPHAGUS
  AUC: 0.9739
OE33_OESOPHAGUS
  AUC: 1.005
ONCODG1_OVARY
  AUC: 0.9121
ONS76_CENTRAL_NERVOUS_SYSTEM
  AUC: 0.7482
OSRC2_KIDNEY
  AUC: 0.9599
OUMS23_LARGE_INTESTINE
  AUC: 0.9942
OV56_OVARY
  AUC: 0.9082
OVCAR8_OVARY
  AUC: 1.07
OVISE_OVARY
  AUC: 0.8469
OVK18_OVARY
  AUC: 0.8349
OVSAHO_OVARY
  AUC: 0.9469
OVTOKO_OVARY
  AUC: 1.103
PANC1_PANCREAS
  AUC: 0.8692
PANC0203_PANCREAS
  AUC: 0.8971
PANC0327_PANCREAS
  AUC: 1.196
PANC0403_PANCREAS
  AUC: 1
PANC0813_PANCREAS
  AUC: 0.9365
PANC1005_PANCREAS
  AUC: 1.142
PATU8902_PANCREAS
  AUC: 1.125
PATU8988S_PANCREAS
  AUC: 1.237
PATU8988T_PANCREAS
  AUC: 0.9888
PC3_PROSTATE
  AUC: 0.9272
PC14_LUNG
  AUC: 0.8983
PECAPJ15_UPPER_AERODIGESTIVE_TRACT
  AUC: 0.8461
PECAPJ41CLONED2_UPPER_AERODIGESTIVE_TRACT
  AUC: 0.7551
PECAPJ49_UPPER_AERODIGESTIVE_TRACT
  AUC: 0.693
PK1_PANCREAS
  AUC: 1.009
PK45H_PANCREAS
  AUC: 1.081
PK59_PANCREAS
  AUC: 1.041
PLCPRF5_LIVER
  AUC: 1.069
PSN1_PANCREAS
  AUC: 0.9727
QGP1_PANCREAS
  AUC: 1.095
RCC10RGB_KIDNEY
  AUC: 1.14
RCM1_LARGE_INTESTINE
  AUC: 1.19
RD_SOFT_TISSUE
  AUC: 0.8902
RERFLCAD1_LUNG
  AUC: 1.191
RERFLCAD2_LUNG
  AUC: 1.139
RERFLCAI_LUNG
  AUC: 0.8829
RERFLCKJ_LUNG
  AUC: 0.8002
RERFLCMS_LUNG
  AUC: 1.045
RH30_SOFT_TISSUE
  AUC: 0.9309
RKN_SOFT_TISSUE
  AUC: 0.8534
RKO_LARGE_INTESTINE
  AUC: 0.7552
RL952_ENDOMETRIUM
  AUC: 0.9781
RMGI_OVARY
  AUC: 0.9543
RMUGS_OVARY
  AUC: 0.8888
RT4_URINARY_TRACT
  AUC: 1.356
RT112_URINARY_TRACT
  AUC: 1.227
